Reference: patent publication US9456589B2, “Elasmobranch-repelling compounds and methods of use” (priority 2005, dated 2016)
Where “and” joins values, the source holds several entries; their conditions need not be identical. Equal values may be shown once. Entries after “also recorded” stand apart in the source; their conditions may differ. Read-outs that look alike come from different tables or passages of the source.

What was measured:
Type in all cases: in vivo
[1] = system: juvenile lemon and nurse sharks; test: Tonic immobility, Micropipette Assay, summary over species; details: for Micropipette Y (termination of tonic immobility), trials of trials: oral dose; for screening result: lemon and nurse sharks
Experimental: (§1) One bioassay used to observe and measure flight response is the tonic immobility test. Tonic immobility is a state of paralysis that typically occurs when a shark is subject to inversion of its body along the longitudinal axis. This state is called “tonic,” and the shark can remain in this state for up to 15 minutes thereby allowing researchers to observe effects of chemical repellents. The “tonic” state of the shark is first established by releasing seawater in proximity to the “tonic” shark with the same delivery instrument and at the same distance as a “test” repellent compound will be released. Some controls are released with a high flow rate (30 mL/sec) in order to establish that sharks are not awakened by a jet of fluid over their noses. Once behavioral controls are established, a compound or composition that may have a repelling effect is delivered to the shark. If the compound or composition engenders a flight response, the shark will awaken from the tonic state and rapidly attempt to flee the delivered repellent. Using this tonic immobility bioassay researches can quantify the strength of a repellent effect.
A fourth method of delivery was called the “Micropipette Assay” method of delivery. In this method, a very small dose (fraction of a mL) of a test substance was delivered directly into a shark's mouth. […] A response, such as a cough or other notable action of the shark, was usually noted when effective gustatory repellents were delivered directly into a shark's mouth while in tonic immobility.
The Micropipette Assay method has not proven to be a particularly effective method of assaying for a flight response in elasmobranchs. The Micropipette Assay method is, nevertheless, an excellent method for specifying that a gustatory response has occurred. It is effective for specifying a gustatory response because the micropipette delivery method allows direct delivery of an entire bolus of test substance into the mouth of the shark being tested.
An oral dose of no more than 400 microliters was then delivered by micropipette into the mouth of a juvenile nurse shark. Tonic immobility was terminated. For each derivative of butyric acid and each naturally occurring acid listed in Table 9, a first micropipette assay was performed on a juvenile lemon shark with no more than 100 microliters of test acid in an oral dose. A second micropipette assay was then performed on a juvenile nurse shark with no more than 400 microliters of test acid in an oral dose. In each test, tonic immobility was terminated.
In a first set of studies on the effectiveness of carboxylic acids as elasmobranch repellents, each tested substance was subjected to the following protocol. […] An oral dose of no more than 400 microliters was then delivered by micropipette into the mouth of a juvenile nurse shark. Tonic immobility was terminated. […] The data evidences the gustatory repelling activity of carboxylic acids.

[2] = system: sharks (lemon, nurse, tiger pooled); test: Tonic immobility, Hd Syringe Assay, summary over species; details: for lowest volume of repellent that terminated tonic immobility: Hd Syringe, lemon and nurse sharks; for Hd-Syringe Y (termination of tonic immobility), trials of trials: species pooled
Experimental: as §1
In Hd-Syringe Assays, the 3-methylbutanal was delivered to the shark's mouth and nares using a 3 mL hypodermic syringe fitted with a 22 gauge needle. The needle was held within 3 inches of the shark's mouth and the test repellent was slowly released from the syringe with a very fine plume in the water column. Any response was denoted. If a response occurred during a measurable time after delivery of the test chemical, the time between delivery and response was noted. If a response occurred immediately or the response occurred before a measurable time could be established, no time to response was noted.

sharks (species pooled) = test: Tonic immobility, total of delivery methods not including Micropipette assays; details: species and delivery methods pooled
Experimental: as §1
Table 1, which summarizes the data in Tables 14 and 15, evidences the gustatory repellent characteristics of methylbutanals. In 35 of 36 assays (combining columns “Y” and “R” under the column labeled “Total (Not including Micropipette Assays)” to arrive at a 97% effectiveness rate), including assays on lemon, nurse, tiger and blacktip sharks, the gustatory repellent activity of 3-methylbutanal was established. In 81% of assays, tonic immobility was fully terminated. […] In only a single assay did a shark not respond to treatment with 3-methylbutanal.

[3] = system: sharks (lemon, nurse, blacknose, blacktip pooled); test: Tonic immobility, Syringe Assay, summary over species
Experimental: as §1
A second delivery method called the “Syringe Assay” method delivered a dose of 60 mL or more of a test chemical repellent from at least one foot, and up to as many as five feet, from a shark. The distance of delivery was determined based on the strength of the water current in the direction of the shark. Time from delivery of the test substance until response was observed, measured and recorded. The “Syringe” method allows a researcher to observe how a diffusing and diluting cloud of test chemical repellent affects the shark's behavior when the shark encounters the delivered cloud of test substance. The “Syringe” method requires relatively large doses because of the diffusion of the cloud over time and distance. Time from delivery to response is related to the size of the bolus delivered from the syringe, distance of the shark from the syringe and water current.
In the Syringe assay about 60 mL or more of valeraldehyde was delivered from one to as many as five feet from the shark depending on the water current. […] Time from delivery to response was related to the size of the bolus delivered from the syringe, distance of the shark from the syringe and water current.

[4] = system: sharks (lemon, nurse, blacktip, tiger, blacknose pooled); test: Tonic immobility, Syringe 3/5/10 Assay, summary over species
Experimental: as §1
In the tonic immobility studies disclosed herein, several different methods were employed for delivery of repelling compounds. A first method for delivery of chemical repellent in tonic immobility studies employed a “Syringe 3/5/10 Assay” method. The “Syringe 3/5/10 Assay” method is so named because a test repellent is delivered to a shark from a distance of about “3” inches with a bolus of about “5” mL with a response to the test repellent considered positive if the shark reacts with a change in behavior within less than about “10” seconds from the time of delivery.
The “3/5/10 Syringe Assay” as employed herein delivered a dose of 5-6 mL of a test chemical repellent from a syringe fixed with a needle having a gauge of about 22 from a distance at least 3 inches in front of a shark. Because the test chemical repellent was delivered at a distance from the shark's nares and mouth, a cloud of test chemical repellent was dispersed over the shark within the water column. The dispersed test repellent was subject to water current direction, dispersion and dilution. As a result, a flight response within 10 seconds was considered a positive repellency response. […] Time from delivery to response is related to the size of the bolus delivered from the syringe, distance of the shark from the syringe and water current.
In Syringe 3/5/10 Assays, 5-6 mL of 3-methylbutanal was delivered at least 3 inches in front of the shark's mouth. A cloud of the repellent dispersed over the shark within the water column. […] As noted above, because the dispersion of the chemical repellent upon delivery is affected by volume of repellent, water current, and other factors, the time between delivery and response was not correlatable with the potency of the repellent.

[5] = juvenile lemon and nurse sharks

| Compound | Micropipette Y (termination of tonic immobility), trials of trials [1, 5] | screening result [1] | Total (Not including Micropipette assays / Effective Delivery Methods) Y, trials of trials (sharks (species pooled)) | Syringe Y (termination of tonic immobility), trials of trials [3] | other results |
| --- | --- | --- | --- | --- | --- |
| CC(=O)CCCC(=O)O [4-Acetylbutyric Acid] | 2/2 | repellents |  |  |  |
| CC(C)=CC=O [3-methylbutenal] |  |  |  |  | lowest volume of repellent that terminated tonic immobility [2]: 350 µL; Hd-Syringe Y (termination of tonic immobility), trials of trials [2]: All assays resulted in termination of tonic immobility and four of four and 4/4; Hd-Syringe Y (termination of tonic immobility), trials of trials ([2]; listed as 3-Methylbutenal): 4/4 |
| CCC=O [Propionaldehyde, propionaldehyde] |  |  | 4/4 | 4/4 | Total Y, percent of trials (sharks (species pooled)): 100%; Syringe Y (termination of tonic immobility), trials of trials ([3]; listed as propionaldehyde): All resulted in termination of tonic immobility |
| CCCCC=O [Valeraldehyde, valeraldehyde] |  |  | 6/6 | 1/1 | Micropipette assays with a gustatory response (termination or behavior change) [1, 5]: six of six; also recorded: all Micropipette assays showed a response; Hd-Syringe Y (termination of tonic immobility), trials of trials [2]: 5/5; Total Y, percent of trials (sharks (species pooled)): 100%; Total (Not including Micropipette assays / Effective Delivery Methods) Y, trials of trials (sharks (species pooled); listed as valeraldehyde): terminated tonic immobility; also recorded: six of six |
| CC/C=C/C=O [Trans-pentenal, trans-pentenal] |  |  | 5/5 |  | Hd-Syringe Y (termination of tonic immobility), trials of trials [2]: 5/5; Hd-Syringe Y (termination of tonic immobility), trials of trials ([2]; listed as Pentenal): 5/5 |
| C=CCC(=O)O [3-Butenoic Acid (vinylacetic acid), 3-Butenoic Acid] | 2/2 | shark repelling compounds |  |  |  |
| O=C(O)CC(CC(=O)O)C(=O)O [Tricarballylic Acid] | 2/2 |  |  |  |  |
| CC(N)CC(=O)O (stereo not shown) [3-Aminobutyric Acid] | 2/2 | repellents |  |  |  |
| O=C(O)/C=C/c1ccccc1 [trans-Cinnamic acid] | 2/2 |  |  |  |  |
| CC(C)(C)C=O [Trimethylacetaldehyde, trimethylacetaldehyde] |  |  | 6/7 | 1/2 | Micropipette assays with a behavioral response within tonic immobility [1, 5]: change of behavior during tonic immobility; Hd-Syringe Y (termination of tonic immobility), trials of trials [2]: 5/5; Total (Not including Micropipette assays / Effective Delivery Methods) N, trials of trials (sharks (species pooled)): 1/7; Total Y, percent of trials (sharks (species pooled)): 100%; Total (Not including Micropipette assays / Effective Delivery Methods) Y, trials of trials (sharks (species pooled); listed as trimethylacetaldehyde): resulted in termination of tonic immobility; Syringe N (no response), trials of trials [3]: 1/2 |
| CCC(C)C=O (stereo not shown) [2-methylbutanal] |  |  | 5/5 |  | lowest volume of repellent that terminated tonic immobility [2]: 200 µL; Hd-Syringe Y (termination of tonic immobility), trials of trials [2]: In each assay tonic immobility was terminated and five of five and 5/5 |
| CC(C)C=O [Isobutyraldehyde, isobutyraldehyde] |  |  | 4/4 | 4/4 | Total Y, percent of trials (sharks (species pooled)): 100%; Syringe Y (termination of tonic immobility), trials of trials ([3]; listed as isobutyraldehyde): All resulted in termination of tonic immobility |
| O=C(O)CC(O)C(=O)O (stereo not shown) [Hydroxysuccinic Acid] | 2/2 |  |  |  |  |
| CC(C)C(C)C(=O)O (stereo not shown) [2,3-Dimethylbutyric Acid] | 2/2 | repellents |  |  |  |
| CC(O)C(=O)O (stereo not shown) [lactic acid] |  |  |  |  | Syringe 3/5/10 N (no response), trials of trials [4]: no behavioral change and 1/3; Syringe 3/5/10 Y (termination of tonic immobility), trials of trials [4]: two of three and 2/3 |
| COc1ccc(C=O)cc1 [Anisaldehyde, anisaldehyde] |  |  |  | 1/1 |  |
| CCC(C)(C)C(=O)O [2,2-Dimethylbutyric Acid] | 2/2 | repellents |  |  |  |
| CCCCCC=O [Capronaldehyde, capronaldehyde] |  |  | 1/1 | 1/1 | Total Y, percent of trials (sharks (species pooled)): 100% |
| CCC(CC)C(=O)O [2-Ethylbutyric Acid] | 2/2 | repellents |  |  |  |
| O=C/C=C/c1ccccc1 [Cinnimaldehyde, trans-cinnimaldehyde] |  |  | 2/2 | 2/2 | Syringe Y (termination of tonic immobility), trials of trials ([3]; listed as cinnimaldehyde): two of two; Syringe Y (termination of tonic immobility), trials of trials ([3]; listed as trans-cinnimaldehyde): resulted in termination of tonic immobility |
| CCC(=O)C(=O)O [2-Ketobutyric Acid] | 2/2 | repellents |  |  |  |
| CC=C(C)C=O [2-methylbutenal] |  |  |  |  | lowest volume of repellent that terminated tonic immobility [2]: 300 µL; Hd-Syringe Y (termination of tonic immobility), trials of trials [2]: All assays resulted in termination of tonic immobility and four of four and 4/4; Hd-Syringe Y (termination of tonic immobility), trials of trials ([2]; listed as 2-Methylbutenal): 4/4 |
